Test results reported in ChEMBL document CHEMBL3045356, “Synthesis and biological evaluation of a novel class as antileishmanial agent” (Med Chem Res, 2012).
The source made the active and inactive calls. No cut-off for these calls is given here.

Columns and labels:
Leishmania major [1] = assay: Antileishmanial activity against promastigote stage of Leishmania major MHOM/IL/81/FEBNI assessed as parasite motility at 10 umol measured every 10 min for 1 hr by light microscopic analysis; type: functional, organism-based
Leishmania major [2] = assay: Antileishmanial activity against promastigote stage of Leishmania major MHOM/IL/81/FEBNI assessed as cell viability at 10 umol measured every day for 5 days by light microscopic analysis; type: functional, organism-based
Leishmania major [3] = assay: Antileishmanial activity against promastigote stage of Leishmania major MHOM/IL/81/FEBNI infected Swiss albino mouse assessed as inhibition of autoamputation of inoculated footpad at 20 umol administered 21 days post infection measured after 5 weeks relative to untreated mouse; type: functional, organism-based
Leishmania major [4] = assay: Antileishmanial activity against promastigote stage of Leishmania major MHOM/IL/81/FEBNI infected Swiss albino mouse assessed as decrease in parasite number in cutaneous lesion at 20 umol administered 21 days post infection measured after 5 weeks by Giemsa staining; type: functional, organism-based
Leishmania major [5] = assay: Antileishmanial activity against promastigote stage of Leishmania major MHOM/IL/81/FEBNI infected Swiss albino mouse assessed as decrease in cutaneous lesion progression at 20 umol administered 21 days post infection measured after 5 weeks relative to untreated mouse; type: functional, organism-based
Leishmania major [6] = assay: Antileishmanial activity against promastigote stage of Leishmania major MHOM/IL/81/FEBNI infected Swiss albino mouse assessed as decrease in parasite-induced inflammatory reaction in cutaneous lesion at 20 umol administered 21 days post infection measured after 5 weeks by Giemsa staining; type: functional, organism-based
Leishmania major [7] = assay: Antileishmanial activity against promastigote stage of Leishmania major MHOM/IL/81/FEBNI infected Swiss albino mouse assessed as decrease in swelling and redness of inoculated footpad at 20 umol administered 21 days post infection measured after 5 weeks; type: functional, organism-based
Mus musculus [8] = assay: Toxicity in Mus musculus Swiss albino (mouse) infected with promastigote stage of Leishmania major MHOM/IL/81/FEBNI assessed as severe irritation of epidermis at 20 umol administered 21 days post infection measured after 5 weeks; type: organism-based; conditions: in vivo, 840 h
Leishmania major [9] = assay: Antileishmanial activity against promastigote stage of Leishmania major MHOM/IL/81/FEBNI infected Swiss albino mouse assessed as inhibition of lesion development in inoculated footpad at 20 umol administered 21 days post infection measured after 5 weeks relative to untreated mouse; type: functional, organism-based
Leishmania major [10] = assay: Antileishmanial activity against promastigote stage of Leishmania major MHOM/IL/81/FEBNI infected Swiss albino mouse assessed as inhibition of gangrene in inoculated footpad at 20 umol administered 21 days post infection measured after 5 weeks relative to untreated mouse; type: functional, organism-based
Mus musculus [11] = assay: Toxicity in Mus musculus Swiss albino (mouse) infected with promastigote stage of Leishmania major MHOM/IL/81/FEBNI assessed as deposition of haemosidrin in macrophages at 20 umol administered 21 days post infection measured after 5 weeks; type: organism-based; conditions: in vivo, 840 h
Mus musculus [12] = assay: Toxicity in Mus musculus Swiss albino (mouse) infected with promastigote stage of Leishmania major MHOM/IL/81/FEBNI assessed as vascular thrombosis at 20 umol administered 21 days post infection measured after 5 weeks; type: organism-based; conditions: in vivo, 840 h

CC1=C(C(=O)NNC(=O)c2ccccc2O)C(c2ccc(N(C)C)cc2)NC(=S)N1 (stereo unspecified)
Activity (Leishmania major [1]): Active
Activity (Leishmania major [2]): Active
inhibition of footpad autoamputation (active/not active) (Leishmania major [3]): Active
Activity (Leishmania major [4]): inactive
Activity (Leishmania major [5]): Active

CC1=C(C(=O)N(CCCl)CCCl)C(c2cccc([N+](=O)[O-])c2)NC(=S)N1 (stereo unspecified)
Activity (Leishmania major [1]): Active
Activity (Leishmania major [2]): Active
Activity (Leishmania major [6]): Active
Activity (Leishmania major [7]): Active
Activity (Leishmania major [4]): Active
Activity (Mus musculus [8]): Non-toxic

C/C=C/C(=O)NNC(=O)C1=C(C)NC(=S)NC1c1cccc([N+](=O)[O-])c1 (stereo unspecified)
Activity (Leishmania major [1]): Active
Activity (Leishmania major [2]): Active
Activity (Leishmania major [6]): Active
Activity (Leishmania major [7]): Active
Activity (Leishmania major [4]): Active
Activity (Mus musculus [8]): Non-toxic

COc1cc(C2NC(=S)NC(C)=C2C(=O)NNC(=O)c2ccccc2O)cc(OC)c1OC (stereo unspecified)
Activity (Leishmania major [1]): Active
inhibition (Leishmania major [9]): inactive
Activity (Leishmania major [2]): Active
inhibition of footpad autoamputation (active/not active) (Leishmania major [3]): inactive
inhibition (Leishmania major [10]): inactive
Activity (Leishmania major [4]): inactive
Activity (Leishmania major [5]): Active

CC1=C(C(=O)NNC(=O)c2ccccc2O)C(c2cccc([N+](=O)[O-])c2)NC(=O)N1 (stereo unspecified)
Activity (Leishmania major [1]): Active
Activity (Leishmania major [2]): Active
Activity (Leishmania major [6]): Active
Activity (Leishmania major [7]): Active
Activity (Leishmania major [4]): Active
Activity (Mus musculus [8]): Toxic

CC1=C(C(=O)NNC(=O)c2ccccc2O)C(c2ccc(N(C)C)cc2)NC(=O)N1 (stereo unspecified)
Activity (Leishmania major [1]): Active
inhibition (Leishmania major [9]): inactive
Activity (Leishmania major [2]): Active
inhibition of footpad autoamputation (active/not active) (Leishmania major [3]): inactive
inhibition (Leishmania major [10]): inactive
Activity (Leishmania major [4]): inactive
Activity (Leishmania major [5]): Active

CC1=C(C(=O)NNC(=O)c2ccccc2O)C(c2cccc([N+](=O)[O-])c2)NC(=S)N1 (stereo unspecified)
Activity (Leishmania major [1]): Active
Activity (Leishmania major [2]): Active
Activity (Leishmania major [6]): Active
Activity (Leishmania major [7]): Active
Activity (Leishmania major [4]): Active
Activity (Mus musculus [8]): Toxic

CC(=O)Nc1ccc(NC(=O)C2=C(C)NC(=O)NC2c2ccc(N(C)C)cc2)cc1 (stereo unspecified)
Activity (Leishmania major [1]): Active
Activity (Leishmania major [2]): Active
Activity (Mus musculus [11]): Toxic
inhibition of footpad autoamputation (active/not active) (Leishmania major [3]): Active
Activity (Mus musculus [12]): Toxic
Activity (Leishmania major [4]): inactive
Activity (Leishmania major [5]): Active
Activity (Mus musculus [8]): Toxic

CC1=C(C(=O)N(CCO)CCO)C(c2cccc([N+](=O)[O-])c2)NC(=S)N1 (stereo unspecified)
Activity (Leishmania major [1]): Active
Activity (Leishmania major [2]): Active
inhibition of footpad autoamputation (active/not active) (Leishmania major [3]): Active
Activity (Leishmania major [4]): inactive
Activity (Leishmania major [5]): Active
